Assay results taken from the SangsterLogP compilation.

| SMILES | logP |
| --- | --- |
| O=Cc1sc2ccc(Cl)cc2c1Br | 3.89 |
| COC(=O)c1cc2cc(Cl)ccc2s1 | 3.81 |
| COC(=O)c1sc2c(OC)ccc(OC)c2c1N | 2.97 |
| COc1ccc(OC)c2sc(CO)cc12 | 2.11 |
| COc1ccc(OC)c2sc(C=O)cc12 | 2.75 |
| OCc1sc2ccc(Cl)cc2c1Br | 3.6 |
| COC(=O)c1cc2ccc([N+](=O)[O-])cc2s1 | 3.06 |
| CN(C)N=Cc1sc2ccc(Cl)cc2c1Br | 4.54 |
| OCc1cc2cc(Cl)ccc2s1 | 2.71 |
| COC(=O)c1cc2ccccc2s1 | 3.21 |
| O=Cc1cc2cc(Cl)ccc2s1 | 2.94 |
| OCc1cc2ccccc2s1 | 2.08 |
| CN(C)N=Cc1cc2cc(Cl)ccc2s1 | 4.18 |
